Ussing and Ieq data for 11 molecules are collected here from patent US11098035B2, “Compounds, compositions, and methods for increasing CFTR activity” (Proteostasis Therapeutics, Inc., priority 2014, dated 2021).

T1 sequence (P13569 with tags, fused parts or gaps DEL508-508): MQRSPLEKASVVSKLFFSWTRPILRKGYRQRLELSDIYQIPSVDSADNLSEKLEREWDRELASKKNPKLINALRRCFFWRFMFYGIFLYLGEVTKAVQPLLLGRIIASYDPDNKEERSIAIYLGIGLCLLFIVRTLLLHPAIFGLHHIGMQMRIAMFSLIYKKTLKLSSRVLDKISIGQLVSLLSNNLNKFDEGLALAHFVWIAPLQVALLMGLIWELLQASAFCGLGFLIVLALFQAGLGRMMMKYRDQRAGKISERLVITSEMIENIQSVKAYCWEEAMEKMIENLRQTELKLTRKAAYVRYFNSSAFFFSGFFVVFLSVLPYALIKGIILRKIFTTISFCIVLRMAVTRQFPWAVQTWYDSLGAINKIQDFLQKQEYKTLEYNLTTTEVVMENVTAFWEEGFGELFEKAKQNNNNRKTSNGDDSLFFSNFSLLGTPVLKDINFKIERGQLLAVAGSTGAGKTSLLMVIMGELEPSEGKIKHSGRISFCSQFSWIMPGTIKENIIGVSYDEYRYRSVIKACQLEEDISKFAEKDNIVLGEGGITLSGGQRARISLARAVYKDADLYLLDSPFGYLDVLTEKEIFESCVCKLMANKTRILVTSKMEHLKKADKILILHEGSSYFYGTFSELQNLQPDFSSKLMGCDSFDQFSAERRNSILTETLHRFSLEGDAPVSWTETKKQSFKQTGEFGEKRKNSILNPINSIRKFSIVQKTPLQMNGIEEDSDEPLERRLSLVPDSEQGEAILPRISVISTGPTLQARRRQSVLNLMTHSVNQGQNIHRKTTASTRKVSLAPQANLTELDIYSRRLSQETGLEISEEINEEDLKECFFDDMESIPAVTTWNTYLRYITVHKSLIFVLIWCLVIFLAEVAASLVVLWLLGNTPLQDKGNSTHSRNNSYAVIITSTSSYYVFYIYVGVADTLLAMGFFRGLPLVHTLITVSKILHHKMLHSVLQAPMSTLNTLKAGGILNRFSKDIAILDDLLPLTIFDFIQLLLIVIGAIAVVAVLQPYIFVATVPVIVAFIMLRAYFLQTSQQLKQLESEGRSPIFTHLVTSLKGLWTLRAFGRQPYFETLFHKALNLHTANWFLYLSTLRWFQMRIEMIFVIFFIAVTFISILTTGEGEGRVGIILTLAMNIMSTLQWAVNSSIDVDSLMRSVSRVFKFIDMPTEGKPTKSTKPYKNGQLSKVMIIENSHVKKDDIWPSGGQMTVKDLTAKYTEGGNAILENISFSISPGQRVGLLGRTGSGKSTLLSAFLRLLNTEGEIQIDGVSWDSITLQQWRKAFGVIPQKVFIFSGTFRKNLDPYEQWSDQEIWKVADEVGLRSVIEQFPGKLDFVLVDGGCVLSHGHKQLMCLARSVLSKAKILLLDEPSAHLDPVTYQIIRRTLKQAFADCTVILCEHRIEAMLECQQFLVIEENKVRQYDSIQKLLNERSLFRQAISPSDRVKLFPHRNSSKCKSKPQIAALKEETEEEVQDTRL

One experiment has as its target T1, ΔF508-CFTR (Homo sapiens, UniProt P13569, DEL508-508).
T1 construct: Primary lung epithelial cells homozygous for the Cystic Fibrosis-causing ΔF508 mutation were differentiated for a minimum of 4 weeks; endogenous in cells; host or cells: primary human bronchial (lung) epithelial cells (hBE) homozygous for ΔF508, differentiated at an air-liquid interface
The experiment can be described thus: Ussing Measurements. The experiment is classed as cell-based. Particulars: compound at 10 uM and VX-809 at 3 uM, activity as % of VX-809 (3 uM); CFTRinh-172 inhibitable short-circuit current; hBEs homozygous for ΔF508, 24 h treatment. The procedure: As discussed above, Ussing measurements are used to measure CFTR activity. In this method, primary lung epithelial cells (hBEs) homozygous for the Cystic Fibrosis-causing ΔF508 mutation are differentiated for a minimum of 4 weeks in an air-liquid interface on SnapWell filter plates prior to the Ussing measurements. Cells are apically mucus-washed for 30 minutes prior to treatment with compounds. The basolateral media is removed and replaced with media containing the compound of interest diluted to its final concentration from DMSO stocks. Treated cells are incubated at 37° C. and 5% CO2 for 24 hours. […] The short-circuit current is measured in voltage clamp-mode (Vhold=0 mV), and the entire assay is conducted at a temperature of 36° C.-36.5° C. Once the voltages stabilized, the chambers are clamped, and data is recorded by pulse readings every 5 seconds. Following baseline current stabilization, the following additions can be applied and the changes in current and resistance of the cells can be monitored: • 1. […]
The inhibitable current (that current that is blocked by CFTRinh-172) is measured as the specific activity of the ΔF508-CFTR channel, and increases in response to compound in this activity over that observed in vehicle-treated samples are identified as the correction of ΔF508-CFTR function imparted by the compound tested. […]
For `O=C(NC1CC(n2nncc2CO)C1)c1cc(-c2ccccc2)no1` (stereo not drawn) [Example 5, N-trans-3-(5-(hydroxymethyl)-1H-1,2,3-triazol-1-yl)cyclobutyl)-3-phenylisoxazole-5-carboxamide], the Ussing result was “## (^## indicates activity ≥200% of VX-809 (3 uM) with compound at 10 uM and VX-809 at 3 uM)”.

Consider `C[C@@H](O)c1nnc(C2CC(NC(=O)c3cc(-c4ccccc4)no3)C2)o1` (stereo partly drawn) [Example 6], for which the Ussing result was “## (^## indicates activity ≥200% of VX-809 (3 uM) with compound at 10 uM and VX-809 at 3 uM)”.

The next experiment has as its target T1, ΔF508-CFTR. Description: hBE Equivalent Current (Ieq) Assay. The conditions noted are these: compound at 10 uM and VX-809 at 1 uM, activity as % of VX-809 (1 uM); AUC of equivalent chloride current; primary lung epithelial cells homozygous for ΔF508, 24 h treatment. The experiment is classed as cell-based. As for the experimental part:
Primary lung epithelial cells homozygous for the Cystic Fibrosis-causing ΔF508 mutation were differentiated for a minimum of 4 weeks in an air-liquid interface on Costar 24 well HTS filter plates prior to the equivalent current (Ieq) measurements. Cells were apically mucus-washed for 30 minutes 24 h prior to treatment with compounds. The basolateral media was removed and replaced with media containing the compound of interest diluted to its final concentration from DMSO stocks. Treated cells were incubated at 37° C. and 5% CO2 for 24 hours. At the end of the treatment period, the media was changed to the Ieq experimental solution for 30 minutes before the experiment and plates are maintained in a CO2-free incubator during this period. The plates containing the cells were then placed in pre-warmed heating blocks at 36° C.±0.5 for 15 minutes before measurements are taken. The transepithelial voltage (VT) and conductance (GT) were measured using a custom 24 channel current clamp (TECC-24) with 24 well electrode manifold. The Ieq assay measurements were made following additions with standardized time periods: • 1. The baseline VT and GT values were measured for approximately 20 minutes. • 2. Benzamil was added to block ENaC for 15 minutes. • 3. Forskolin plus VX-770 were added to maximally activate ΔF508-CFTR for 27 minutes. • 4. Bumetanide was added to inhibit the NaK2Cl cotransporter and shut-off secretion of chloride.
The activity data captured was the area under the curve (AUC) for the traces of the equivalent chloride current. The AUC was collected from the time of the forskolin/VX-770 addition until the inhibition by bumetanide addition. Correction in response to compound treatment was scored as the increase in the AUC for compound-treated samples over that of vehicle-treated samples.
The results are shown below in Table 2. ++ indicates activity ≥25% run at 10 uM of VX-809 at 1 uM, + indicates activity 10 to <25% run at 10 uM of VX-809 at 1 uM, **indicates activity ≥200% of VX-809 (1 uM) with compound at 10 uM and VX-809 at 1 uM; * indicates activity 100-200% of VX-809 (1 uM) with compound at 10 uM and VX-809 at 1 uM. ^## indicates activity ≥200% of VX-809 (3 uM) with compound at 10 uM and VX-809 at 3 uM; ^# indicates activity 100-200% of VX-809 (3 uM) with compound at 10 uM and VX-809 at 3 uM.
For `C[C@@H](O)c1nnc(C2CC(NC(=O)c3cc(-c4ccccc4)no3)C2)o1` (stereo partly drawn) [Example 6], the Ieq result was “* (* indicates activity 100-200% of VX-809 (1 uM) with compound at 10 uM and VX-809 at 1 uM)”.

In the case of `C[C@@H](O)c1nnc(C[C@H]2C[C@@H](NC(=O)c3cc(-c4ccccc4)no3)C2)s1` [Example 41, 3-Phenyl-N-[(1s,3s)-3-([5-[(1R)-1-hydroxyethyl]-1,3,4-thiadiazol-2-yl]methyl)cyclobutyl]-1,2-oxazole-5-carboxamide], the Ieq entry was “** (**indicates activity ≥200% of VX-809 (1 uM) with compound at 10 uM and VX-809 at 1 uM)”.

As for `C[C@@H](O)c1nnc(CC2CC(NC(=O)c3cc(-c4ccccc4)no3)C2)s1` (stereo partly drawn) [Example 42, 3-Phenyl-N-[(1r,3r)-3-([5-[(1R)-1-hydroxyethyl]-1,3,4-thiadiazol-2-yl]methyl)cyclobutyl]-1,2-oxazole-5-carboxamide], the Ieq result was “* (* indicates activity 100-200% of VX-809 (1 uM) with compound at 10 uM and VX-809 at 1 uM)”.

For `C[C@@H](O)c1nnc(C[C@H]2C[C@@H](NC(=O)c3cc(-c4ccc(F)cc4)no3)C2)s1` [Example 43, 3-(4-Fluorophenyl)-N-[(1s,3s)-3-([5-[(1R)-1-hydroxyethyl]-1,3,4-thiadiazol-2-yl]methyl)cyclobutyl]-1,2-oxazole-5-carboxamide], the Ieq entry is “** (**indicates activity ≥200% of VX-809 (1 uM) with compound at 10 uM and VX-809 at 1 uM)”.

Regarding `C[C@@H](O)c1nnc(C[C@H]2C[C@H](NC(=O)c3cc(-c4ccc(F)cc4)no3)C2)s1` [Example 44, 3-(4-Fluorophenyl)-N-[(1r,3r)-3-([5-[(1R)-1-hydroxyethyl]-1,3,4-thiadiazol-2-yl]methyl)cyclobutyl]-1,2-oxazole-5-carboxamide], the Ieq result was “** (**indicates activity ≥200% of VX-809 (1 uM) with compound at 10 uM and VX-809 at 1 uM)”.

On to `C[C@@H](O)c1nnc(C[C@H]2C[C@@H](NC(=O)c3cc(-c4cccs4)no3)C2)o1` [Example 45, N-[(1s,3s)-3-([5-[(1R)-1-Hydroxyethyl]-1,3,4-oxadiazol-2-yl]methyl)cyclobutyl]-3-(thiophen-2-yl)-1,2-oxazole-5-carboxamide], for which the Ieq result was “* (* indicates activity 100-200% of VX-809 (1 uM) with compound at 10 uM and VX-809 at 1 uM)”.

For the molecule `C[C@@H](O)c1nnc(C[C@H]2C[C@H](NC(=O)c3cc(-c4cccs4)no3)C2)o1` [Example 46, N-[(1r,3r)-3-([5-[(1R)-1-Hydroxyethyl]-1,3,4-oxadiazol-2-yl]methyl)cyclobutyl]-3-(thiophen-2-yl)-1,2-oxazole-5-carboxamide], the Ieq result is “* (* indicates activity 100-200% of VX-809 (1 uM) with compound at 10 uM and VX-809 at 1 uM)”.

`C[C@@H](O)c1nnc([C@H]2C[C@H](NC(=O)c3onc(-c4ccccc4)c3F)C2)o1` [Example 50, 4-Fluoro-3-phenyl-N-[(1r,3r)-3-[5-[(1R)-1-hydroxyethyl]-1,3,4-oxadiazol-2-yl]cyclobutyl]-1,2-oxazole-5-carboxamide]: the Ieq entry is “* (* indicates activity 100-200% of VX-809 (1 uM) with compound at 10 uM and VX-809 at 1 uM)”.

As to `C[C@H](O)c1cnnn1C[C@H]1C[C@@H](NC(=O)c2cc(-c3ccccc3)no2)C1` [Example 57, 3-Phenyl-N-[(1s,3s)-3-([5-[(1S)-1-hydroxyethyl]-1H-1,2,3-triazol-1-yl]methyl)cyclobutyl]-1,2-oxazole-5-carboxamide], the Ieq result is “** (**indicates activity ≥200% of VX-809 (1 uM) with compound at 10 uM and VX-809 at 1 uM)”.

For the molecule `C[C@H](O)c1cn(C[C@H]2C[C@@H](NC(=O)c3cc(-c4ccccc4)no3)C2)nn1` [Example 58, 3-Phenyl-N-[(1s,3s)-3-([4-[(1S)-1-hydroxyethyl]-1H-1,2,3-triazol-1-yl]methyl)cyclobutyl]-1,2-oxazole-5-carboxamide], the Ieq result is “* (* indicates activity 100-200% of VX-809 (1 uM) with compound at 10 uM and VX-809 at 1 uM)”.
